# Test results as given in patent US11266645B2, “Methods for treating lymphoma” (Alexion Pharmaceuticals, Inc., priority 2018, dated 2022).
# Where two headings read alike, the source gives them in different places.
# Key:
# [1] = Cerdulatinib plasma concentration in patients (LC-MS/MS); assay type: in vivo, human
# Procedure: Blood samples were collected on K2EDTA for the determination of total cerdulatinib plasma concentrations on day 1 prior to dosing and at 0.5, 1, 2, 3, 4, 6, 8, and 12 hours post-dose; on Day 8 at pre-dose and 2 hours post-dose; on Day 15 pre-dose; and on Day 28 (end of the first treatment cycle) at pre-dose and at 0.5, 1, 2, 3, 4, 6, 8, and 12 hours post-dose. A liquid chromatography-tandem mass spectrometry (LC-MS/MS) method was developed and validated by Alturas Analytics, Inc. (Moscow, Id.) for the determination of cerdulatinib concentration in human plasma. […] J Pharmacol Exp Ther, 2014. 351(3): p. 538-48. Chromatographic separations were performed over a Phenomenex Synergi Polar-RP column (50×2.0 mm, 4 μm) (Phenomenex, Torrance, Calif., USA). MS/MS analysis was performed using a Sciex API-4000 triple quadrupole mass spectrometer with a TurboSpray ion source (Applied Biosystems, Foster City, Calif., USA). The peak area of the m/z 394→360 cerdulatinib product ion was measured against the peak area of the m/z 397→363 internal standard product ion. Intra-assay precision (% CV) and accuracy (% bias) were within 0.8% to 4.5% and −10.1% to 7.8%, respectively, and inter-assay precision (% CV) and accuracy (% bias) were 2.0% to 3.8% and −7.3% to 6.0%, respectively.
# [2] = test system: Follicular lymphoma (FL) cell lines SU-DHL6, DOHH2, WSU-FSCCL; test: FL cell line assays (CellTiter Glo, Edu, caspase 3, immunoblot, phosphoflow); assay type: cell-based, human
# Procedure: CellTiter Glo, Edu and caspase 3 assays were used to examine the effects of cerdulatinib alone and in combination with venetoclax. Percent inhibition was determined relative to vehicle control. Edu incorporation and caspase 3 cleavage were performed using FACS-based assays and CellTiter Glo in a 96-well black plate.
# Follicular lymphoma (FL) cell lines SU-DHL6, DOHH2, or WSU-FSCCL were treated with cerdulatinib in the presence or absence of venetoclax at the indicated concentrations for 24-72 hours and analyzed by Edu, CellTiter-Glo, Annexin V/PI, and CellTiter-Glo).
# Whole cell lysates were subjected to immunoblotting on 12% gels and probed with the indicated antibodies using established protocols. Phosphoflow cytometry was performed on an LSRII following cell fixing in 4% PFA and permeabilzation with 50% methanol. Phospho-antibody staining was performed for 1 hour at room temperature.
# Primary CLL cells = Primary CLL cells with IL-4/CD40L, immunoblotting and annexin V/PI viability; assay type: cell-based, human
# Procedure: Combination studies were performed with 10 or 100 nM venetoclax or 300 and 1000 nM S63846. Cell viability was assessed by annexin V/PI using flow cytometry and changes in protein expression by immunoblotting.
# SU-DHL6 xenograft = SU-DHL6 xenograft in Nude mice; assay type: in vivo; details: tumors treated with cerdulatinib
# Procedure: Xenograft studies in Nude mice were performed to evaluate cerdulatinib and venetoclax in combination. Nude mice were inoculated with […] SU-DHL6 cells subcutaneously. Once tumors reached 200 mm^3, the mice were randomized into 4 groups: vehicle, cerdulatinib alone, venetoclax alone, or a combination of cerdulatinib and venetoclax.
# [3] = Food and proton pump inhibitor crossover PK study in healthy subjects; assay type: in vivo, human; details: 30 mg oral; for Cmax / AUC(0-inf) / half-life / Tmax: human; for Cmax / AUC(0-inf): po, 30 mg; for AUC(0-inf): read-out: AUC0−inf Mean; for half-life: read-out: T1/2 Mean (converted); for Tmax: read-out: Tmax Median
# Procedure: In an open-label, randomized, 3-period crossover study, healthy subjects received 30 mg cerdulatinib orally. The 3-period treatments were fasted, high-fat diet, and proton pump inhibitor (PPI) esomaprazole, with 14-day washout between treatments. Blood samples were collected up to 72 hours after cerdulatinib treatment. PK endpoints were area under the curve (AUC), maximum concentration (Cmax), Time to Cmax (Tmax), and half-live (T1/2).
# [4] = test system: patients with relapsed/refractory Follicular Lymphoma; test: Phase 2a dose expansion study in relapsed/refractory follicular lymphoma, single agent and with rituximab; assay type: in vivo, human
# Procedure: Methods: This is a phase 2a dose expansion study was carried out with cerdulatinib dosed 30 mg orally BID in patients with relapsed/refractory (r/r) B cell lymphoma. Dose reductions were permitted to a minimum of 15 mg BID. Responses of patients to the cerdulatinib treatment and cerdulatinib rituximab combination treatment were assessed by Lugano Classification criteria.
# A total of 40 patients were enrolled in the single arm, cerdulatinib treatment cohort and 11 patients were enrolled in the cerdulatinib rituximab combination cohort. Median age was 64 (42-81) and median number of prior therapies was three (1-8). 50 (98%) patients had prior anti-CD20 therapy and 8 (16%) patients had prior PI3K or BTK inhibitors. The most common adverse effects (AEs) of any grade were diarrhea (47%), nausea (37%), lipase increase (29%) and amylase increase (22%). Grade 3+ AEs occurring in more than 5% patients are lipase increase (24%), diarrhea (12%), amylase increase (10%), nausea (8%), hypertension (8%), and neutropenia (6%). Grade 3+ infections occurred in 6 (12%) of patients. One patient had Grade 5 multi-organ failure potentially related to study drug. Amylase and lipase elevations generally were not associated with abdominal pain or pancreatitis. The safety profile in the combination cohort appeared to be similar to what is seen with single-agent cerdulatinib.
# [5] = single arm cohort, out of 40 patients
structure (smiles),measurement,setting,value
"CCS(=O)(=O)N1CCN(c2ccc(Nc3ncc(C(N)=O)c(NC4CC4)n3)cc2)CC1 [cerdulatinib, 4-(cyclopropylamino)-2-((4-(4-(ethylsulfonyl)piperazin-1-yl)phenyl)amino)pyrimidine-5-carboxamide]",SSCmin achieved,"[1]; CLL/SLL patients, lower dose cohorts",0.004 to 0.325 µM
same,SSCmin exposures at which tumor responses were more apparent,[1]; FL patients,0.729 to 1.219 µM
same,SSCmin to SSCmax cerdulatinib serum concentrations,"[1]; human, in vivo",0.32 to 0.38 µM
same,SSCmin that was well tolerated,[1]; phase 1 dose-escalation,up to 1 μM
same,average SSCmin,[1]; phase 2 dose 30 mg BID,~0.8 µM
same,"basal expression of phospho (p)AKT and pERK, anti-IgM and anti-IgG mediated signaling",[2]; FL cell lines,inhibit
same,Bcl-2 expression,[2]; FL lines,minimal impact
same,Bim RNA level,[2]; WSU and DHL6 cells,increased
same,Mcl-1 RNA levels,[2]; cerdulatinib alone,remained unchanged
same,Mcl-1 expression,[2]; most pronounced in WSU-FSCCL cells,down modulation
same,IL-4/CD40L induced Mcl-1 and Bcl-XL expression,Primary CLL cells; 1 μM,significantly reduced
same,inhibition of Mcl-1 and Bcl-XL compared to the other kinase inhibitors,Primary CLL cells; 1 μM,more robust inhibition
same,synergy with venetoclax to induce apoptosis,Primary CLL cells; CLL cells,synergized
same,Bim induction compared to idelalisib and ibrutinib,Primary CLL cells; equivalent drug concentrations,induced to greater levels
same,Bim expression in tumors,SU-DHL6 xenograft,increase
same,MCL-1 in tumors,SU-DHL6 xenograft,no change
same,AUC0−inf Ratio Fed/Fasted,[3],1.16
same,AUC0−inf Ratio PPI/Fasted,[3],1.06
same,Cmax Ratio Fed/Fasted,[3],1.11
same,Cmax Ratio PPI/Fasted,[3],1.02
same,T1/2 Mean,[3]; Fasted,14.5 h
same,Cmax,"[3]; blood, Fed (high-fat diet)",187 ng/mL
same,AUC(0-inf),"[3]; blood, Fed (high-fat diet)",4060 ng·h/mL
same,half-life,"[3]; blood, Fed (high-fat diet)",816 min
same,Tmax,"[3]; blood, Fed (high-fat diet)",6 h
same,Cmax,"[3]; in vivo, Fasted",168 ng/mL
same,AUC(0-inf),"[3]; in vivo, Fasted",3460 ng·h/mL
same,Cmax,"[3]; in vivo, PPI (esomaprazole)",170 ng/mL
same,AUC(0-inf),"[3]; in vivo, PPI (esomaprazole)",3680 ng·h/mL
same,half-life,"[3]; in vivo, PPI (esomaprazole)",870 min
same,Tmax,"[3]; in vivo, PPI (esomaprazole)",4 h
same,AEs of any grade: amylase increase,"[4]; r/r FL, both cohorts together",22%
same,AEs of any grade: lipase increase,"[4]; r/r FL, both cohorts together",29%
same,AEs of any grade: nausea,"[4]; r/r FL, both cohorts together",37%
same,Grade 3+ AEs: amylase increase,"[4]; r/r FL, both cohorts together",10%
same,Grade 3+ AEs: diarrhea,"[4]; r/r FL, both cohorts together",12%
same,Grade 3+ AEs: hypertension,"[4]; r/r FL, both cohorts together",8%
same,Grade 3+ AEs: lipase increase,"[4]; r/r FL, both cohorts together",24%
same,Grade 3+ AEs: nausea,"[4]; r/r FL, both cohorts together",8%
same,Grade 3+ AEs: neutropenia,"[4]; r/r FL, both cohorts together",6%
same,Grade 3+ infections,"[4]; r/r FL, both cohorts together",12%
same,patients with Grade 5 multi-organ failure potentially related to study drug,"[4]; r/r FL, both cohorts together",One
same,AEs of any grade: diarrhea,"[4]; r/r FL, single-agent and rituximab combination cohorts together",47%
same,ORR,"[4]; single arm cohort, 40 patients",46%
same,"CRs, number of patients",[4]; [5],5
same,"PRs, number of patients",[4]; [5],13
